Laboratory results published in PMC9305971, “Development of [^18F]AmBF3 Tetrazine for Radiolabeling of Peptides: Preclinical Evaluation and PET Imaging of [^18F]AmBF3-PEG7-Tyr^3-Octreotide in an AR42J Pancreatic Carcinoma Model” (Bioconjugate Chemistry, 2022).
Where two headings read alike, the source gives them in different places.

Experiments:
[1] = Lipophilicity, shake-flask log D7.4 (1-octanol/PBS); assay type: physicochemical; conditions: 1-octanol/PBS pH 7.4, n = 4
Experimental: Lipophilicity was determined with the shake-flask method as a distribution coefficient between 0.01 M PBS and octanol. Purified radiotracer [^18F]6 (10 μL, ∼200 kBq, 1.5 nmol), [^18F]14 (20 μL, ∼260 kBq, 125 pmol), or [^18F]15 (20 μL, 144 kBq, 67 pmol) in a polypropylene tube containing 1500–2000 μL of each in a 1:1 mixture (1-octanol, 0.02 M PBS, pH 7.4) was shaken mechanically (500 rpm, 10 min) and centrifuged (1000g, 5 min), and samples from each layer (400 μL, n = 4) were measured with a γ-counter. The log D7.4 was calculated as a distribution between the two layers at pH 7.4. [^18F]6 (10 MBq, 40 nmol) diluted with 0.01 M PBS at pH 7.4 (≤1% ethanol, 5300 μL) was incubated for 180 min. At selected time points (5, 30, 60, 90, 120, 150, and 180 min), a sample (100 μL) was injected to radio-HPLC. [^18F]14 and [^18F]15 (29 MBq, 10 nmol) diluted in 2000 μL of 0.01 M PBS (≤1% ethanol) were left to incubate. A sample of [^18F]14 (100 μL) after 9 hours and [^18F]15 at selected time points between 30 and 335 min were injected into HPLC (method A). [^18F]15 (0.6 MBq, 0.134 nmol, 200 μL) formulated in ≤5% EtOH-1 × PBS was added and incubated in 2000 μL of PBS-50% human plasma at 37 °C. A 100 μL sample (at 60, 120, 180, and 240 min, n = 2) was diluted with 200 μL of cold acetonitrile and centrifuged (10,000g, 5 min). After centrifugation, a 100 μL sample of the supernatant was injected for radio-HPLC analysis. […]
Lipophilicity. The lipophilicities were determined with the shake-flask method as a distribution profile between 0.01 M PBS and octanol at pH 7.4. The distribution of the radiolabeled compound between the octanol and the PBS layers was calculated according

[2] = Hydrolytic stability in 0.01 M PBS / formulated solution (radio-HPLC); assay type: physicochemical; conditions: 4% ethanol-0.01 M PBS (pH 7.4), sampled at 9 h
Experimental: Lipophilicity was determined with the shake-flask method as a distribution coefficient between 0.01 M PBS and octanol. Purified radiotracer [^18F]6 (10 μL, ∼200 kBq, 1.5 nmol), [^18F]14 (20 μL, ∼260 kBq, 125 pmol), or [^18F]15 (20 μL, 144 kBq, 67 pmol) in a polypropylene tube containing 1500–2000 μL of each in a 1:1 mixture (1-octanol, 0.02 M PBS, pH 7.4) was shaken mechanically (500 rpm, 10 min) and centrifuged (1000g, 5 min), and samples from each layer (400 μL, n = 4) were measured with a γ-counter. The log D7.4 was calculated as a distribution between the two layers at pH 7.4. [^18F]6 (10 MBq, 40 nmol) diluted with 0.01 M PBS at pH 7.4 (≤1% ethanol, 5300 μL) was incubated for 180 min. At selected time points (5, 30, 60, 90, 120, 150, and 180 min), a sample (100 μL) was injected to radio-HPLC. [^18F]14 and [^18F]15 (29 MBq, 10 nmol) diluted in 2000 μL of 0.01 M PBS (≤1% ethanol) were left to incubate. A sample of [^18F]14 (100 μL) after 9 hours and [^18F]15 at selected time points between 30 and 335 min were injected into HPLC (method A). [^18F]15 (0.6 MBq, 0.134 nmol, 200 μL) formulated in ≤5% EtOH-1 × PBS was added and incubated in 2000 μL of PBS-50% human plasma at 37 °C. A 100 μL sample (at 60, 120, 180, and 240 min, n = 2) was diluted with 200 μL of cold acetonitrile and centrifuged (10,000g, 5 min). After centrifugation, a 100 μL sample of the supernatant was injected for radio-HPLC analysis.

AR42J xenografts = assay: Ex vivo biodistribution of [18F]14 and [18F]15; assay type: in vivo, Rj:NMRI-Foxn1^nu/nu mice
Experimental: (§1) [^18F]14 and [^18F]15 in ≤4% ethanol–0.01 M PBS were administered intravenously (1.2 ± 0.0 and 2.0 ± 0.1 MBq, respectively, 0.2 nmol, 150 μL) to AR42J tumor-bearing Rj:NMRI-Foxn1^nu/nu mice. At predetermined time points (t = 30, 60, 120, and 240 min), animals were euthanized with CO2 asphyxiation and cervical dislocation, and then the organs were harvested, washed with water, and blotted dry, following with weighing and γ counting from which the % ID/g in tissues was determined.

[3] = Ex vivo biodistribution of [18F]14 and [18F]15; assay type: in vivo, Rj:NMRI-Foxn1^nu/nu mice; conditions: mouse, iv, 0.2 nmol; for tissue uptake at 1 h / tissue uptake at 2 h: i.v.; for tissue uptake at 2 h: 120 min post injection
Experimental: as §1

Q: Which results are given for `C[C@@H](O)[C@@H]1NC(=O)[C@H](CCCCN)NC(=O)[C@@H](Cc2c[nH]c3ccccc23)NC(=O)[C@H](Cc2ccc(O)cc2)NC(=O)[C@@H](NC(=O)[C@@H](Cc2ccccc2)NC(=O)CCOCCOCCOCCOCCON=Cc2ccc(CNC(=O)OC3CCCc4cnnc(-c5ccc(CC(=O)NCC[N+](C)(C)C[B-](F)(F)F)cc5)c4CC3)cc2)CSSC[C@@H](C(=O)N[C@H](CO)[C@@H](C)O)NC1=O` (stereo partly drawn) [[^18F]14]?
A: logD [1]: -0.58 ± 0.06; stability in the formulated solution [2]: stable; urine (AR42J xenografts; 60 min post injection, i.v., baseline): 84.9 ± 58.6 % ID/g; defluorination in vivo (in words) (AR42J xenografts; judged from bone uptake): A minor degree of defluorination could not be ruled out; tissue to tissue ratio at 1 h ([3]; Rj:NMRI-Foxn1^nu/nu, tumor (AR42J xenograft) / blood, total radioactivity, 60 min post injection, baseline, read-out: T/blood ratio): 0.3; tissue uptake at 1 h ([3]; 60 min post injection, baseline, read-out: blood): 10.2 ± 2.3 %ID/g; tissue uptake at 1 h ([3]; 60 min post injection, baseline, read-out: brain): 0.3 ± 0.1 %ID/g; tissue uptake at 1 h ([3]; 60 min post injection, baseline, read-out: gallbladder): 17.8 ± 5.2 %ID/g; tissue uptake at 1 h ([3]; 60 min post injection, baseline, read-out: heart): 2.4 ± 0.7 %ID/g; tissue uptake at 1 h ([3]; 60 min post injection, baseline, read-out: kidney): 14.3 ± 4.5 %ID/g; tissue uptake at 1 h ([3]; 60 min post injection, baseline, read-out: liver): 30 ± 9.4 %ID/g; tissue uptake at 1 h ([3]; 60 min post injection, baseline, read-out: lung): 6.2 ± 2.4 %ID/g; tissue uptake at 1 h ([3]; 60 min post injection, baseline, read-out: muscle): 0.6 ± 0.2 %ID/g; tissue uptake at 1 h ([3]; 60 min post injection, baseline, read-out: pancreas): 1.1 ± 0.2 %ID/g; tissue uptake at 1 h ([3]; 60 min post injection, baseline, read-out: skin): 2.1 ± 0.9 %ID/g; tissue uptake at 1 h ([3]; 60 min post injection, baseline, read-out: spleen): 1.2 ± 0.5 %ID/g; tissue uptake at 1 h ([3]; 60 min post injection, baseline, read-out: urine): ~85 %ID/g; tissue uptake at 1 h ([3]; 60 min post injection, blocked with octreotide, read-out: blood): 7.4 ± 1.5 %ID/g; tissue uptake at 1 h ([3]; 60 min post injection, blocked with octreotide, read-out: brain): 0.3 ± 0.1 %ID/g; tissue uptake at 1 h ([3]; 60 min post injection, blocked with octreotide, read-out: gallbladder): 10.7 ± 6.3 %ID/g; tissue uptake at 1 h ([3]; 60 min post injection, blocked with octreotide, read-out: heart): 1.9 ± 0.4 %ID/g; tissue uptake at 1 h ([3]; 60 min post injection, blocked with octreotide, read-out: kidney): 11.4 ± 3.7 %ID/g; tissue uptake at 1 h ([3]; 60 min post injection, blocked with octreotide, read-out: liver): 26.2 ± 15.8 %ID/g; tissue uptake at 1 h ([3]; 60 min post injection, blocked with octreotide, read-out: lung): 5.5 ± 2.7 %ID/g; tissue uptake at 1 h ([3]; 60 min post injection, blocked with octreotide, read-out: muscle): 0.5 ± 0.1 %ID/g; tissue uptake at 1 h ([3]; 60 min post injection, blocked with octreotide, read-out: pancreas): 0.8 ± 0.5 %ID/g; tissue uptake at 1 h ([3]; 60 min post injection, blocked with octreotide, read-out: skin): 1.6 ± 0.4 %ID/g; tissue uptake at 1 h ([3]; 60 min post injection, blocked with octreotide, read-out: spleen): 0.9 ± 0.1 %ID/g; tissue uptake at 1 h ([3]; 60 min post injection, blocked with octreotide, read-out: urine): 41.9 ± 15.7 %ID/g; tissue uptake at 1 h ([3]; large intestine with contents, 60 min post injection, baseline, read-out: L. I. (+cont.), large intestine): 1.1 ± 1.1 %ID/g; tissue uptake at 1 h ([3]; large intestine with contents, 60 min post injection, blocked with octreotide, read-out: L. I. (+cont.), large intestine): 0.7 ± 0.3 %ID/g; tissue uptake at 1 h ([3]; occipital bone, 60 min post injection, blocked with octreotide, read-out: bone, occipital): 1.1 ± 0.5 %ID/g; tissue uptake at 2 h ([3]; occipital bone, read-out: bone, occipital): 1.7 ± 0.1 %ID/g; tissue uptake at 1 h ([3]; small intestine with contents, 60 min post injection, baseline, read-out: S. I. (+cont.), small intestines): 2.6 ± 0.8 %ID/g; tissue uptake at 1 h ([3]; small intestine with contents, 60 min post injection, blocked with octreotide, read-out: S. I. (+cont.), small intestines): 1.9 ± 0.4 %ID/g; tissue uptake at 1 h ([3]; stomach with contents, 60 min post injection, baseline, read-out: stomach (+cont.)): 0.6 ± 0.2 %ID/g; tissue uptake at 1 h ([3]; stomach with contents, 60 min post injection, blocked with octreotide, read-out: stomach (+cont.)): 0.6 ± 0.2 %ID/g; tissue uptake at 1 h ([3]; tibia bone, 60 min post injection, baseline, read-out: bone, tibia): 1.3 ± 0.6 %ID/g; tissue uptake at 1 h ([3]; tibia bone, 60 min post injection, blocked with octreotide, read-out: bone, tibia): 1 ± 0.6 %ID/g; tissue uptake at 2 h ([3]; tibia bone, read-out: bone, tibia): 2.9 ± 1.4 %ID/g; tissue uptake at 1 h ([3]; tumor, AR42J xenograft, 60 min post injection, baseline, read-out: tumor uptake): 3.1 ± 0.7 %ID/g; tissue uptake at 1 h ([3]; tumor, AR42J xenograft, 60 min post injection, blocked with octreotide, read-out: tumor uptake): 2.2 ± 0.6 %ID/g
